Assay results taken from the supplement of paper PMC13380429.

Columns and labels:
Conditions in all cases: 72 h
Vero E6 [1] = assay: drug sensitivity score (DSS) for viability; higher = more toxic; extreme values may be limits of the assay
Calu-3 [2] = assay: as above
HepG2 [3] = assay: as above
Caco-2 [4] = assay: as above
U2OS [5] = assay: as above
Vero E6 [6] = assay: relative viability EC50 (midpoint between 100% and the lowest measured viability); higher = less toxic
Calu-3 [7] = assay: as above
U2OS [8] = assay: as above
Vero E6 [9] = assay: cell viability relative to DMSO; higher = less toxic
Calu-3 [10] = assay: as above
HepG2 [11] = assay: as above
Caco-2 [12] = assay: as above
U2OS [13] = assay: as above
HepG2 [14] = assay: relative viability EC50 (midpoint between 100% and the lowest measured viability); higher = less toxic

Row | Compound | drug sensitivity score (Vero E6 [1]) | drug sensitivity score (Calu-3 [2]) | drug sensitivity score (HepG2 [3]) | drug sensitivity score (Caco-2 [4]) | drug sensitivity score (U2OS [5]) | relative viability EC50 (Vero E6 [6]) | relative viability EC50 (Calu-3 [7]) | relative viability EC50 (U2OS [8]) | cell viability (Vero E6 [9]; 1 nM) | cell viability (Vero E6 [9]; 10 nM) | cell viability (Vero E6 [9]; 100 nM) | cell viability (Vero E6 [9]; 1000 nM) | cell viability (Vero E6 [9]; 10000 nM) | cell viability (Calu-3 [10]; 1 nM) | cell viability (Calu-3 [10]; 10 nM) | cell viability (Calu-3 [10]; 100 nM) | cell viability (Calu-3 [10]; 1000 nM) | cell viability (Calu-3 [10]; 10000 nM) | cell viability (HepG2 [11]; 1 nM) | cell viability (HepG2 [11]; 10 nM) | cell viability (HepG2 [11]; 100 nM) | cell viability (HepG2 [11]; 1000 nM) | cell viability (HepG2 [11]; 10000 nM) | cell viability (Caco-2 [12]; 1 nM) | cell viability (Caco-2 [12]; 10 nM) | cell viability (Caco-2 [12]; 100 nM) | cell viability (Caco-2 [12]; 1000 nM) | cell viability (Caco-2 [12]; 10000 nM) | cell viability (U2OS [13]; 1 nM) | cell viability (U2OS [13]; 10 nM) | cell viability (U2OS [13]; 100 nM) | cell viability (U2OS [13]; 1000 nM) | cell viability (U2OS [13]; 10000 nM) | relative viability EC50 (HepG2 [14])
1 | CC(C)c1noc(N2CCC(COc3ccc(-c4ccc(S(C)(=O)=O)cc4)nc3)CC2)n1 | 0 | 0 | 2.9 | 1.8 | 0 | > 10 µM | > 10 µM | > 10 µM | 98% | 100% | 98.8% | 89.3% | 103% | 96.4% | 101% | 92.4% | 94.4% | 106% | 97.1% | 106% | 109% | 97.3% | 50.9% | 92.5% | 93.5% | 101% | 95.6% | 72.5% | 99.3% | 94.1% | 97.6% | 100% | 101% | 
2 | CCn1c(-c2nonc2N)nc2c(C#CC(C)(C)O)ncc(OC[C@H]3CCCNC3)c21 | 0 | 6.3 | 0 | 4.7 | 0.3 | > 10 µM |  | > 10 µM | 96.5% | 96% | 95.5% | 95.1% | 111% | 102% | 98.2% | 92.2% | 69.5% | 73.5% | 94.8% | 98.1% | 96.5% | 94.5% | 99.4% | 92.9% | 86.7% | 101% | 72.1% | 69.3% | 96.3% | 93.3% | 98.1% | 87.5% | 85.9% | > 10 µM
3 | COc1ccc(CCCO[C@@H](Cn2ccnc2)c2ccc(OC)cc2)cc1 | 2.9 |  | 3.2 | 3.6 | 3.6 |  |  | 3.1 µM | 94.5% | 104% | 96.5% | 98% | 50.1% |  |  |  |  |  | 101% | 104% | 95.4% | 106% | 34% | 93.4% | 95% | 100% | 93.5% | 52.6% | 97.4% | 96.7% | 99.3% | 99.4% | 35.9% | 3.59 µM
4 | Cc1cc(I)ccc1Nc1c(C(=O)NOCC2CC2)cc(F)c(F)c1F | 5.2 | 5.7 | 9.7 | 5.2 | 2.3 |  | 1.26 µM |  | 89.6% | 100% | 90.4% | 77% | 52.6% | 97.2% | 100% | 103% | 80.3% | 45.1% | 88.7% | 107% | 94% | 55.5% | 21.1% | 93.3% | 99.5% | 98.3% | 75% | 54.8% | 100% | 97.1% | 99.8% | 89.6% | 74.7% | 0.814 µM
5 | C[C@@H]1CCCN1CCc1cc2cc(-c3ccc(C#N)cc3)ccc2o1 [ABT-239] | 0 | 1.5 | 1.4 | 1.9 | 0.1 | > 10 µM |  | > 10 µM | 89.8% | 94.9% | 92% | 91.2% | 91.8% | 95.5% | 96.1% | 106% | 111% | 58.9% | 105% | 92.9% | 94.8% | 90.9% | 75.9% | 86.8% | 106% | 93.4% | 97.2% | 68.1% | 96.3% | 101% | 97.9% | 102% | 87% | > 10 µM
6 | COc1ccc(C(=O)c2c(C)n(CCN3CCOCC3)c3cc(I)ccc23)cc1 [AM-630] | 0 | 0 | 0 | 2.1 | 0 | > 10 µM | > 10 µM | > 10 µM | 97.8% | 96.5% | 102% | 100% | 97% | 92.9% | 102% | 104% | 102% | 92.9% | 93.3% | 82.5% | 104% | 94.3% | 91.6% | 97.3% | 113% | 81.1% | 94.2% | 69.7% | 96.2% | 101% | 97.2% | 98.5% | 94.1% | > 10 µM
7 | Cc1[nH]nc(C(F)(F)F)c1Cc1sc2c(c1C(=O)N1C[C@](C)(O)CO1)c(=O)n(C)c(=O)n2C(C)C [AZD3965] | 0 | 0 | 0 | 10.1 | 0.6 | > 10 µM | > 10 µM | > 10 µM | 99.8% | 97.5% | 101% | 92.9% | 97.4% | 93.6% | 101% | 101% | 103% | 107% | 99.4% | 89.2% | 99.3% | 93.3% | 101% | 92.9% | 79.5% | 74.9% | 72% | 76.5% | 99.8% | 95.3% | 89% | 92% | 89.2% | > 10 µM
8 | CCC[C@@H]1C[C@@H](C(=O)N[C@@H]([C@H]2O[C@H](SC)[C@H](OP(=O)(O)O)[C@@H](O)[C@H]2O)[C@H](C)Cl)N(C)C1 [Clindamycin phosphate] | 0 | 0 | 0 |  | 0 |  |  |  |  |  |  |  |  |  |  |  |  |  |  |  |  |  |  |  |  |  |  |  |  |  |  |  |  | 
9 | OC[C@H]1O[C@H](O[C@H]2[C@H](O)[C@@H](O)[C@H](O)O[C@@H]2CO)[C@H](O)[C@@H](O)[C@@H]1O [D-(+)-maltose] | 0 |  | 0 |  | 0 |  |  |  |  |  |  |  |  |  |  |  |  |  |  |  |  |  |  |  |  |  |  |  |  |  |  |  |  | 
10 | N[C@H](CO)C(=O)O [D-serine] | 0 | 0 | 0 |  | 0 |  |  |  |  |  |  |  |  |  |  |  |  |  |  |  |  |  |  |  |  |  |  |  |  |  |  |  |  | 
11 | Cc1cc(Nc2ncnc3ccc(-c4ccc(CNCCS(C)(=O)=O)o4)cc23)ccc1Oc1ccn2ncnc2c1 [HER2-Inhibitor-1] | 0 | 15 | 0.4 | 4.2 | 0.4 | > 10 µM | 0.124 µM | > 10 µM | 105% | 106% | 105% | 93.7% | 94.2% | 122% | 88.4% | 66.1% | 45.5% | 30.5% | 98.4% | 102% | 95.8% | 89.1% | 88.8% | 102% | 88.5% | 94.8% | 88.4% | 52.7% | 98.2% | 95.2% | 100% | 91.9% | 87.9% | > 10 µM
12 | CCNC(=O)C[C@@H]1N=C(c2ccc(Cl)cc2)c2cc(OC)ccc2-n2c(C)nnc21 [I-BET-762] | 9.8 | 3 | 6.9 | 2 | 4.5 | 1.04 µM |  | 1.69 µM | 98.1% | 104% | 104% | 59.9% | 15.9% | 104% | 116% | 104% | 93.7% | 60.8% | 111% | 112% | 98.8% | 64.9% | 50.2% | 94.8% | 100% | 88.6% | 91.3% | 72.8% | 94.7% | 101% | 90% | 87.9% | 47.8% | 
13 | C=CC(=O)c1ccc2ccccc2c1 [JAK3-inhibitor-V] | 0 | 0 | 0 |  |  | > 10 µM | > 10 µM |  | 99.5% | 107% | 99.8% | 104% | 101% | 110% | 97.3% | 111% | 94.8% | 96.6% | 106% | 108% | 98.8% | 110% | 110% |  |  |  |  |  |  |  |  |  |  | > 10 µM
14 | N#Cc1c(N)nc(SCc2ncc[nH]2)c(C#N)c1-c1ccc(O)cc1 [LUF-5834] |  |  | 0 |  |  |  |  |  |  |  |  |  |  |  |  |  |  |  | 102% | 115% | 103% | 105% | 98.6% |  |  |  |  |  |  |  |  |  |  | > 10 µM
15 | CC1(N)CCN(c2cnc(-c3cccc(Cl)c3Cl)c(N)n2)CC1 [SHP099] | 1.6 | 3.9 | 0.2 | 3.6 | 0 | > 10 µM |  | > 10 µM | 103% | 93.2% | 106% | 92.2% | 78.9% | 101% | 98.3% | 104% | 82.2% | 64.7% | 91.2% | 84.8% | 103% | 93.5% | 82% | 94.1% | 113% | 90.9% | 91.9% | 56.4% | 93.8% | 95.4% | 91.9% | 98.4% | 90.2% | > 10 µM
16 | CC(C)Oc1ccc(-c2nn([C@@H](C)c3oc4ccc(F)cc4c(=O)c3-c3cccc(F)c3)c3ncnc(N)c23)cc1F [TGR-1202] |  |  | 0 |  |  |  |  |  |  |  |  |  |  |  |  |  |  |  | 101% | 108% | 108% | 111% | 98.2% |  |  |  |  |  |  |  |  |  |  | > 10 µM
17 | NC12CC3CC(CC(C3)C1)C2 [amantadine] | 0 | 0 | 0 |  | 0 |  |  |  |  |  |  |  |  |  |  |  |  |  |  |  |  |  |  |  |  |  |  |  |  |  |  |  |  | 
18 | N=C(N)NC(=O)c1nc(Cl)c(N)nc1N [amiloride] | 0 | 0 | 0 |  | 0 |  |  |  |  |  |  |  |  |  |  |  |  |  |  |  |  |  |  |  |  |  |  |  |  |  |  |  |  | 
19 | CCC[C@H]1C(=O)N2C(N(C)C)=Nc3ccc(C)cc3N2C1=O [azapropazone] | 0 | 0 | 0 |  | 0 |  |  |  |  |  |  |  |  |  |  |  |  |  |  |  |  |  |  |  |  |  |  |  |  |  |  |  |  | 
20 | OCCNC1CCCc2c1[nH]c1ccc(-c3ccccc3)cc21 (stereo not drawn) [casin] | 0.9 | 1.1 | 3.4 | 1.9 | 0.5 | > 10 µM |  | > 10 µM | 102% | 106% | 106% | 98.9% | 77.7% | 96.3% | 97.4% | 97.1% | 106% | 69.1% | 94.7% | 97.6% | 87.5% | 94.7% | 52.4% | 106% | 97.4% | 99.4% | 96.3% | 69.8% | 107% | 102% | 105% | 102% | 79% | 
21 | N.N.[Cl][Pt][Cl] [cisplatin] | 0 | 0.2 | 0 |  | 0 |  |  |  |  |  |  |  |  |  |  |  |  |  |  |  |  |  |  |  |  |  |  |  |  |  |  |  |  | 
